{
  "source": "paper PMC5218480",
  "about": "(PLoS ONE, 2017)",
  "test_system": "MV-4-11 cells",
  "experiment": "Gene expression microarray analysis (Affymetrix PrimeView) and GSEA",
  "assay_type": "cell-based, human",
  "design": "RFU PODN (11730768_x_at) / Fold change /veh PODN (11730768_x_at) / RFU LINC00158 (11744669_a_at) / Fold change /veh LINC00158 (11744669_a_at) / RFU DUSP10 (11751237_a_at) / Fold change /veh DUSP10 (11751237_a_at) / RFU ID3 (11757404_x_at) / Fold change /veh ID3 (11757404_x_at) / RFU PLEKHG5 (11737974_s_at) / Fold change /veh PLEKHG5 (11737974_s_at) / RFU LRRC4B (11730491_at) / Fold change /veh LRRC4B (11730491_at) / RFU GIMAP4 (11747438_a_at) / Fold change /veh GIMAP4 (11747438_a_at) / RFU KRT8 (11758183_x_at) / Fold change /veh KRT8 (11758183_x_at) / RFU CNN1 (11734310_a_at) / Fold change /veh CNN1 (11734310_a_at) / RFU VPS37D (11726825_at) / Fold change /veh VPS37D (11726825_at) / RFU C10orf10 (11716522_x_at) / Fold change /veh C10orf10 (11716522_x_at) / RFU KIR2DL2 /// KIR2DL4 /// KIR2DL5A /// KIR2DL5B /// KIR2DS1 /// KIR2DS2 /// KIR2DS3 /// KIR2DS4 /// KIR3DL3 /// KIR3DL3 /// KIR3DS1 (11738374_at) / Fold change /veh KIR2DL2 /// KIR2DL4 /// KIR2DL5A /// KIR2DL5B /// KIR2DS1 /// KIR2DS2 /// KIR2DS3 /// KIR2DS4 /// KIR3DL3 /// KIR3DL3 /// KIR3DS1 (11738374_at) / RFU C1QL1 (11718748_at) / Fold change /veh C1QL1 (11718748_at) / RFU TMPRSS4 (11747572_a_at) / Fold change /veh TMPRSS4 (11747572_a_at) / RFU HAMP (11756126_x_at) / Fold change /veh HAMP (11756126_x_at) / RFU RNFT2 (11725882_a_at) / Fold change /veh RNFT2 (11725882_a_at) / RFU NR4A2 (11747474_a_at) / Fold change /veh NR4A2 (11747474_a_at) / RFU ABCC12 (11746883_a_at) / Fold change /veh ABCC12 (11746883_a_at) / RFU TMEM136 (11760407_x_at) / Fold change /veh TMEM136 (11760407_x_at) / RFU CLDN22 /// WWC2 (11732394_at) / Fold change /veh CLDN22 /// WWC2 (11732394_at) / RFU HLA-DPB1 (11760878_x_at) / Fold change /veh HLA-DPB1 (11760878_x_at) / RFU SPINT1 (11716480_a_at) / Fold change /veh SPINT1 (11716480_a_at) / RFU GAP43 (11754022_s_at) / Fold change /veh GAP43 (11754022_s_at) / RFU A4GNT (11735810_at) / Fold change /veh A4GNT (11735810_at) / RFU PRB3 (11715151_x_at) / Fold change /veh PRB3 (11715151_x_at) / RFU TUBB4B (11761932_at) / Fold change /veh TUBB4B (11761932_at) / RFU CAPN14 (11732068_a_at) / Fold change /veh CAPN14 (11732068_a_at) / RFU TMCC2 (11721928_a_at) / Fold change /veh TMCC2 (11721928_a_at) / RFU IRGQ (11745062_a_at) / Fold change /veh IRGQ (11745062_a_at) / RFU FAM174B (11720279_a_at) / Fold change /veh FAM174B (11720279_a_at) / RFU TMPRSS4 (11748680_a_at) / Fold change /veh TMPRSS4 (11748680_a_at) / RFU FAM212B (11763350_a_at) / Fold change /veh FAM212B (11763350_a_at) / RFU PLEKHG5 (11743358_a_at) / Fold change /veh PLEKHG5 (11743358_a_at) / RFU ZSCAN30 (11745921_a_at) / Fold change /veh ZSCAN30 (11745921_a_at) / RFU CMKLR1 (11741424_a_at) / Fold change /veh CMKLR1 (11741424_a_at) / RFU LOC101060620 /// MAPK8IP1 (11723275_at) / Fold change /veh LOC101060620 /// MAPK8IP1 (11723275_at) / RFU SPTSSB (11747773_x_at) / Fold change /veh SPTSSB (11747773_x_at) / RFU PRSS12 (11739890_at) / Fold change /veh PRSS12 (11739890_at) / RFU BIN1 (11741810_x_at) / Fold change /veh BIN1 (11741810_x_at) / RFU WNT11 (11732464_a_at) / Fold change /veh WNT11 (11732464_a_at) / RFU C10orf10 (11716521_a_at) / Fold change /veh C10orf10 (11716521_a_at) / RFU C5orf56 (11738089_at) / Fold change /veh C5orf56 (11738089_at) / RFU CYB561 (11721691_x_at) / Fold change /veh CYB561 (11721691_x_at) / RFU ANKRD19P (11752326_a_at) / Fold change /veh ANKRD19P (11752326_a_at) / RFU OR2T12 /// OR2T33 /// OR2T8 (11738714_s_at) / Fold change /veh OR2T12 /// OR2T33 /// OR2T8 (11738714_s_at) / RFU VCAN (11748164_a_at) / Fold change /veh VCAN (11748164_a_at) / RFU JSRP1 (11732532_at) / Fold change /veh JSRP1 (11732532_at) / RFU KRTAP10-11 (11738290_x_at) / Fold change /veh KRTAP10-11 (11738290_x_at) / RFU MYO3A (11730013_a_at) / Fold change /veh MYO3A (11730013_a_at) / RFU EBF3 (11725865_a_at) / Fold change /veh EBF3 (11725865_a_at) / RFU CAMK2N1 (11719241_x_at) / Fold change /veh CAMK2N1 (11719241_x_at) / RFU C5orf56 (11738088_a_at) / Fold change /veh C5orf56 (11738088_a_at) / RFU OLFML3 (11715873_a_at) / Fold change /veh OLFML3 (11715873_a_at) / RFU LOC100653217 /// NTM (11731650_a_at) / Fold change /veh LOC100653217 /// NTM (11731650_a_at) / RFU MAPK11 (11762145_a_at) / Fold change /veh MAPK11 (11762145_a_at) / RFU FIZ1 (11724087_x_at) / Fold change /veh FIZ1 (11724087_x_at) / RFU OASL (11726364_x_at) / Fold change /veh OASL (11726364_x_at) / RFU SOX15 (11748057_x_at) / Fold change /veh SOX15 (11748057_x_at) / RFU CD79A (11719716_a_at) / Fold change /veh CD79A (11719716_a_at) / RFU HIST1H1D (11736915_at) / Fold change /veh HIST1H1D (11736915_at) / RFU CASKIN2 (11723855_a_at) / Fold change /veh CASKIN2 (11723855_a_at) / RFU LOC730098 (11760151_x_at) / Fold change /veh LOC730098 (11760151_x_at) / RFU OR4N2 (11742367_at) / Fold change /veh OR4N2 (11742367_at) / RFU PRRT2 (11749266_a_at) / Fold change /veh PRRT2 (11749266_a_at) / RFU SNX32 (11753110_a_at) / Fold change /veh SNX32 (11753110_a_at) / RFU CDHR5 (11726645_a_at) / Fold change /veh CDHR5 (11726645_a_at) / RFU RCAN1 (11760418_a_at) / Fold change /veh RCAN1 (11760418_a_at) / RFU FAM167A (11723789_a_at) / Fold change /veh FAM167A (11723789_a_at) / RFU FAM26E (11764081_at) / Fold change /veh FAM26E (11764081_at) / RFU ISYNA1 (11749810_s_at) / Fold change /veh ISYNA1 (11749810_s_at) / RFU ACY1 (11761880_at) / Fold change /veh ACY1 (11761880_at) / RFU 11764098_at / Fold change /veh 11764098_at / RFU SAMD14 (11745864_x_at) / Fold change /veh SAMD14 (11745864_x_at) / RFU NPB (11741838_a_at) / Fold change /veh NPB (11741838_a_at) / RFU TMPRSS6 (11731388_a_at) / Fold change /veh TMPRSS6 (11731388_a_at) / RFU KRTAP10-2 (11738614_at) / Fold change /veh KRTAP10-2 (11738614_at) / RFU ARHGAP8 /// PRR5-ARHGAP8 (11727945_x_at) / Fold change /veh ARHGAP8 /// PRR5-ARHGAP8 (11727945_x_at) / RFU KRTAP5-7 /// NADSYN1 (11734609_at) / Fold change /veh KRTAP5-7 /// NADSYN1 (11734609_at) / RFU RASL12 (11751679_a_at) / Fold change /veh RASL12 (11751679_a_at) / RFU CDKN2B (11736163_a_at) / Fold change /veh CDKN2B (11736163_a_at) / RFU PRF1 (11729649_at) / Fold change /veh PRF1 (11729649_at) / RFU, ZNF638 /// ZNF638-IT1 / Fold change vs veh, ZNF638 /// ZNF638-IT1 / RFU, PANK3 / Fold change vs veh, PANK3 / RFU, SH3YL1 / Fold change vs veh, SH3YL1 / RFU, ZEB2 / Fold change vs veh, ZEB2 / RFU, NRIP1 / Fold change vs veh, NRIP1 / RFU, PTTG1IP / Fold change vs veh, PTTG1IP / RFU, CAPN2 / Fold change vs veh, CAPN2 / RFU, MED14 / Fold change vs veh, MED14 / RFU, SNORA58 / Fold change vs veh, SNORA58 / RFU, C1orf63 / Fold change vs veh, C1orf63 / RFU, LRRFIP1 / Fold change vs veh, LRRFIP1 / RFU, NDUFAF7 / Fold change vs veh, NDUFAF7 / RFU, SLC12A2 / Fold change vs veh, SLC12A2 / RFU, IBTK / Fold change vs veh, IBTK / RFU, ESF1 / Fold change vs veh, ESF1 / Fold change vs veh, TMEM50B / RFU, TAOK1 / Fold change vs veh, TAOK1 / RFU, ACBD3 / Fold change vs veh, ACBD3 / RFU, TMA16 / Fold change vs veh, TMA16 / RFU, RWDD3 / Fold change vs veh, RWDD3 / RFU, BCAT1 / Fold change vs veh, BCAT1 / RFU, EDEM3 / Fold change vs veh, EDEM3 / RFU, TMEM33 / Fold change vs veh, TMEM33 / RFU, WDR75 / Fold change vs veh, WDR75 / RFU, AHCTF1 / Fold change vs veh, AHCTF1 / RFU, TFRC / Fold change vs veh, TFRC / RFU, ZDHHC17 / Fold change vs veh, ZDHHC17 / RFU, NOM1 / Fold change vs veh, NOM1 / RFU, ARL8B / Fold change vs veh, ARL8B / RFU, ZBTB11 / Fold change vs veh, ZBTB11 / RFU, TAMM41 / Fold change vs veh, TAMM41 / RFU, KIAA1704 /// LOC100996395 / Fold change vs veh, KIAA1704 /// LOC100996395 / RFU, ING1 / Fold change vs veh, ING1 / RFU, TRMT61B / Fold change vs veh, TRMT61B / RFU, FUBP3 / Fold change vs veh, FUBP3 / RFU, TP53 / Fold change vs veh, TP53 / RFU, TNKS2 / Fold change vs veh, TNKS2 / RFU, ZFP14 / Fold change vs veh, ZFP14 / RFU, ACTR2 / Fold change vs veh, ACTR2 / RFU, PPP3R1 / Fold change vs veh, PPP3R1 / RFU, PIK3R1 / Fold change vs veh, PIK3R1 / RFU, HNRNPA1 / Fold change vs veh, HNRNPA1 / RFU, RNF170 / Fold change vs veh, RNF170 / RFU, ZNF28 / Fold change vs veh, ZNF28 / RFU, RNGTT / Fold change vs veh, RNGTT / RFU, OGT / Fold change vs veh, OGT / RFU, BRD1 / Fold change vs veh, BRD1 / RFU, MARS / Fold change vs veh, MARS / RFU, ZNF655 / Fold change vs veh, ZNF655 / RFU, FAHD1 / Fold change vs veh, FAHD1 / RFU, BDP1 / Fold change vs veh, BDP1 / RFU, LRRCC1 / Fold change vs veh, LRRCC1 / RFU, ARID1A / Fold change vs veh, ARID1A / RFU, ZNF146 / Fold change vs veh, ZNF146 / RFU, ZNF330 / Fold change vs veh, ZNF330 / RFU, GPN3 / Fold change vs veh, GPN3 / RFU, C9orf123 / Fold change vs veh, C9orf123 / RFU, N4BP2L2 / Fold change vs veh, N4BP2L2 / RFU, ARFIP1 / Fold change vs veh, ARFIP1 / RFU, FAM179B / Fold change vs veh, FAM179B / RFU, BCL10 / Fold change vs veh, BCL10 / RFU, UHRF1BP1L / Fold change vs veh, UHRF1BP1L / RFU, BET1 / Fold change vs veh, BET1 / RFU, CNOT2 / Fold change vs veh, CNOT2 / RFU, ZNF268 / Fold change vs veh, ZNF268 / Fold change vs veh, ZNF507 / RFU, DGCR2 / Fold change vs veh, DGCR2 / RFU, WDSUB1 / Fold change vs veh, WDSUB1 / Fold change vs veh, HSP90B1 /// MIR3652 / RFU, ADSS / Fold change vs veh, ADSS / RFU, GK / Fold change vs veh, GK / RFU, ZNF148 / Fold change vs veh, ZNF148 / RFU, TAF9 / Fold change vs veh, TAF9 / RFU, SLC1A5 / Fold change vs veh, SLC1A5 / RFU, SLMO2 / Fold change vs veh, SLMO2 / RFU, ABCC4 / Fold change vs veh, ABCC4 / RFU, LOC101060439 /// RAP1B / Fold change vs veh, LOC101060439 /// RAP1B / RFU, RFX7 / Fold change vs veh, RFX7 / RFU, GTPBP10 / Fold change vs veh, GTPBP10 / RFU, CNEP1R1 / Fold change vs veh, CNEP1R1 / RFU, BIVM-ERCC5 /// ERCC5 / Fold change vs veh, BIVM-ERCC5 /// ERCC5 / RFU, ILF3 / Fold change vs veh, ILF3 / RFU 11762660_at / Fold change /veh 11762660_at / RFU VCAN (11757783_s_at) / Fold change /veh VCAN (11757783_s_at) / RFU DDX43 (11728927_at) / Fold change /veh DDX43 (11728927_at) / RFU KRT8 (11758188_x_at) / Fold change /veh KRT8 (11758188_x_at) / RFU NKD1 (11759106_at) / Fold change /veh NKD1 (11759106_at) / RFU SRD5A1 (11742802_a_at) / Fold change /veh SRD5A1 (11742802_a_at) / RFU TPSAB1 /// TPSB2 (11721975_s_at) / Fold change /veh TPSAB1 /// TPSB2 (11721975_s_at) / RFU GSTM3 (11746129_a_at) / Fold change /veh GSTM3 (11746129_a_at) / RFU IL23R (11737362_x_at) / Fold change /veh IL23R (11737362_x_at) / RFU TMEM51 (11727254_a_at) / Fold change /veh TMEM51 (11727254_a_at) / RFU PIWIL2 (11732686_x_at) / Fold change /veh PIWIL2 (11732686_x_at) / RFU ORM1 (11744905_x_at) / Fold change /veh ORM1 (11744905_x_at) / RFU CCDC152 (11743942_at) / Fold change /veh CCDC152 (11743942_at) / RFU ECM1 (11717891_a_at) / Fold change /veh ECM1 (11717891_a_at) / RFU IL23R (11748794_a_at) / Fold change /veh IL23R (11748794_a_at) / RFU TNFAIP8L3 (11732012_x_at) / Fold change /veh TNFAIP8L3 (11732012_x_at) / RFU MBOAT4 (11741988_at) / Fold change /veh MBOAT4 (11741988_at) / RFU 11764193_at / Fold change /veh 11764193_at / RFU TMEM53 (11763286_at) / Fold change /veh TMEM53 (11763286_at) / RFU MAGEB2 (11727129_at) / Fold change /veh MAGEB2 (11727129_at) / RFU TMEM200A (11744735_a_at) / Fold change /veh TMEM200A (11744735_a_at) / RFU CCDC152 (11751479_a_at) / Fold change /veh CCDC152 (11751479_a_at) / RFU FAM211A (11726209_a_at) / Fold change /veh FAM211A (11726209_a_at) / RFU RGS16 (11746705_a_at) / Fold change /veh RGS16 (11746705_a_at) / RFU VCAN (11755009_s_at) / Fold change /veh VCAN (11755009_s_at) / RFU RHOB (11743442_s_at) / Fold change /veh RHOB (11743442_s_at) / RFU RGS16 (11720943_a_at) / Fold change /veh RGS16 (11720943_a_at) / RFU RGS16 (11720944_at) / Fold change /veh RGS16 (11720944_at) / RFU, VPS4B / Fold change vs veh, VPS4B / RFU, CREB1 / Fold change vs veh, CREB1 / RFU, DNAJC13 / Fold change vs veh, DNAJC13 / RFU, GNAQ / Fold change vs veh, GNAQ / RFU, CDK5R1 / Fold change vs veh, CDK5R1 / RFU, ZRANB3 / Fold change vs veh, ZRANB3 / RFU, CUL4A / Fold change vs veh, CUL4A / RFU, CCNY / Fold change vs veh, CCNY / RFU, UFL1 / Fold change vs veh, UFL1 / RFU, COG3 / Fold change vs veh, COG3 / RFU, DIAPH2 / Fold change vs veh, DIAPH2 / RFU, SKA2 / Fold change vs veh, SKA2 / RFU, AFF3 / Fold change vs veh, AFF3 / RFU, LMF1 / Fold change vs veh, LMF1 / RFU, IPO11 / Fold change vs veh, IPO11 / RFU, DFFB / Fold change vs veh, DFFB / RFU, FOXP1 / Fold change vs veh, FOXP1 / RFU, CARD8 / Fold change vs veh, CARD8 / RFU, STRN3 / Fold change vs veh, STRN3 / RFU, ADK / Fold change vs veh, ADK / RFU, RASSF2 / Fold change vs veh, RASSF2 / RFU, WIPF1 / Fold change vs veh, WIPF1 / RFU, LARP1B / Fold change vs veh, LARP1B / RFU, RASA1 / Fold change vs veh, RASA1 / RFU, RB1 / Fold change vs veh, RB1 / RFU, PPFIA1 / Fold change vs veh, PPFIA1 / RFU, MAT2A / Fold change vs veh, MAT2A / RFU, CCT5 / Fold change vs veh, CCT5 / RFU, WDR92 / Fold change vs veh, WDR92 / RFU, CUX1 / Fold change vs veh, CUX1 / RFU, TTC7A / Fold change vs veh, TTC7A / RFU, TMEM135 / Fold change vs veh, TMEM135 / RFU, DEPTOR / Fold change vs veh, DEPTOR / RFU, CPM / Fold change vs veh, CPM / RFU, DNAJB6 / Fold change vs veh, DNAJB6 / RFU, CACNA2D3 / Fold change vs veh, CACNA2D3 / RFU, DTX4 / Fold change vs veh, DTX4 / RFU, TFCP2 / Fold change vs veh, TFCP2 / RFU, GMCL1 /// GMCL1P1 / Fold change vs veh, GMCL1 /// GMCL1P1 / RFU, AEBP2 / Fold change vs veh, AEBP2 / RFU, SNHG1 /// SNORD22 /// SNORD25 /// SNORD26 /// SNORD27 /// SNORD28 /// SNORD29 /// SNORD31 / Fold change vs veh, SNHG1 /// SNORD22 /// SNORD25 /// SNORD26 /// SNORD27 /// SNORD28 /// SNORD29 /// SNORD31 / Fold change (Aza/veh), C12orf56 (ProbeSet 11735607_a_at) / Fold change (ACY-1035/veh), C12orf56 (ProbeSet 11735607_a_at) / Fold change (Aza/veh), FGFR1OP (ProbeSet 11751329_s_at) / Fold change (ACY-1035/veh), FGFR1OP (ProbeSet 11751329_s_at) / Fold change (Aza/veh), VPS36 (ProbeSet 11739960_a_at) / Fold change (ACY-1035/veh), VPS36 (ProbeSet 11739960_a_at) / RFU SYPL1 (11715823_x_at) / Fold change /veh SYPL1 (11715823_x_at) / RFU IGFBP7 (11715501_s_at) / Fold change /veh IGFBP7 (11715501_s_at) / RFU REEP3 (11722064_at) / Fold change /veh REEP3 (11722064_at) / RFU IGLL1 (11728026_x_at) / Fold change /veh IGLL1 (11728026_x_at): dose or concentration left out as unconfirmed",
  "conditions": "ProbeSet 11728271_at; LIST B",
  "data": [
    {"smiles": "Nc1ncn([C@@H]2O[C@H](CO)[C@@H](O)[C@H]2O)c(=O)n1", "note": "[azacitidine]", "values": [
      {"measurement": "Fold change vs veh, ZNF330", "value": 0.94}
    ]}
  ]
}
